Positions of bridges follow the written chain, without caps; N, C: chain ends. Non-standard residues stand in square brackets, D forms with d. Residues, ends and D or L forms follow the SMILES beside them. Abu = CC[C@H](N)C(=O)O
Assays:
[1] = test system: Staphylococcus aureus; assay: Compound tested to inhibit staphylococcal AgrC-2; type: functional, organism-based
[2] = test system: Staphylococcus aureus; assay: Compound tested to inhibit staphylococcal AgrC-1; type: functional, organism-based

Row | SMILES | IC50 [1] | IC50 [2]
1 | CC[C@H](C)[C@@H]1NC(=O)[C@@H](Cc2ccccc2)NC(=O)[C@H](C)NC(=O)[C@H](NC(=O)[C@@H](NC(=O)[C@H](CO)NC(=O)CCCOc2ccc(Cc3ccccc3)cc2)[C@@H](C)O)CSC(=O)[C@H](CCSC)NC1=O | 0.019 µM | 0.295 µM
2 | CC[C@H](C)[C@H]1NC(=O)[C@@H](Cc2ccccc2)NC(=O)[C@@H](C)NC(=O)[C@H](NC(=O)[C@@H](NC(=O)[C@H](CO)NC(=O)CCCOc2ccc(C(=O)c3ccccc3)cc2)[C@@H](C)O)CSC(=O)[C@@H](CCSC)NC1=O | 0.018 µM | 0.303 µM
3 | CC[C@H](C)[C@@H]1NC(=O)[C@H](Cc2ccccc2)NC(=O)[C@H](C)NC(=O)[C@@H](NC(=O)[C@@H](NC(=O)[C@H](CO)NC(=O)[C@@H](N)Cc2ccc(O)cc2)[C@@H](C)O)CSC(=O)[C@H](CCSC)NC1=O (H-YSTCAFIM; thioester 4-C) | 0.004 µM | 0.021 µM
4 | CC[C@@H]1NC(=O)[C@@H](NC(=O)[C@@H](NC(=O)[C@H](CO)NC(=O)[C@@H](N)Cc2ccc(O)cc2)[C@@H](C)O)CSC(=O)[C@H](CCSC)NC(=O)[C@H]([C@@H](C)CC)NC(=O)[C@H](Cc2ccccc2)NC1=O (H-YSTC[Abu]FIM; thioester 4-C) | 0.0028 µM | 0.137 µM
